Test: ETH 129 mediated cation transport into Quin-2 loaded POPC vesicles
Type: biochemical
Parameters: slope of log Ca2+ transport rate vs ΔΨ: unit not given here
Conditions: for SlopeETH 129: log rate vs log ETH 129; for SlopeMe: log rate vs log cation concentration, FIG. 8B
Method: Unilamellar vesicles loaded with Quin-2 were prepared from 1-palmitoyl-2-oleoyl-sn-glycerophosphatidylcholine (POPC) by freeze-thaw extrusion (Erdahl et al., 1994 Biophys. J. 66:1678; Erdahl et al., 1995 Biophys. J. 69:2350). The formation medium contained 5 mM Quin-2 (K+), 10 mM Hepes (K+), pH 7.00, and 100 mM KCl. A high internal K+ concentration was sought to allow the generation of membrane potentials of varying magnitude (see below). The preparations obtained were applied to Sephadex™ G-50 mini-columns (Pharmacia, Piscataway N.J.) and eluted by low speed centrifugation (Fry et al., 1978 Anal. Biochem. 90:809), to replace the external medium with a 10 mM Hepes buffer (Na+), pH 7.00 (Erdahl et al., 1994 Biophys. J. 66:1678; Erdahl et al., 1995 Biophys. J. 69:2350). The nominal concentration of POPC in final preparations was determined as lipid phosphorus (Bartlett, 1959 J Biol. Chem. 234:466) and was near 80 mM. The average diameter of these vesicles was 71 nm as determined by freeze-fracture electron microscopy (Chapman et al., 1990 Chem. Phys. Lipids 55:73). They contained entrapped K+ at approximately 125 mM, as determined by atomic absorption spectroscopy, and Quin-2 at approximately 6 mM. The latter value was determined by titrating lysed vesicles with a standard solution of CaCl2 and was about one third of the expected value (Erdahl et al., 1995 Bipohys. J. 69:3250). The high solute level in the formation medium reduced the efficiency of Quin-2 entrapment by reducing the effectiveness of a freeze-thaw driven solute concentrating mechanism that normally elevates the internal concentrations of solutes, relative to the external medium (Chapman et al., 1990 Chem. Phys. Lipids 55:73; Chapman et al., 1990 Chem. Phys. Lipids 60:201).
POPC vesicles containing Quin-2 were utilized at a nominal phospholipid concentration of 1.0 mM, and at 25° C. The external medium contained polyvalent cation salts as described below, 100 mM NaCl, or mixtures of NaCl and KCl totaling […], and 10 mM Hepes, pH 7.00, unless otherwise noted. The medium pH was adjusted with NaOH that had been passed over Chelex 100 columns to remove contaminating cations (Erdahl et al., 1994 Biophys. J. 66:1678). In most cases an inside negative membrane electrical potential was present during the experiments. This was generated by the presence of 0.5 μM valinomycin (Val), which transports K+ out of the vesicles electrogenically (Erdahl et al., 1994 Biophys. J. 66:1678). The magnitude of the potential was controlled by varying the concentration ratio of Na+ to K+ in the external medium. A TPP+electrode was used to measure the potential (Broekemeier et al, 1998 Biochem. 37:13059), and thereby to verify that the calculated values were obtained. For these purposes the incubation medium contained 2.0 μM TPP.Cl and the entrapped volume was taken to be 2.02 μl/ml at a nominal POPC concentration of 1.0 mM (Chapman et al., 1990 Chem. Phys. Lipids 55:73).
Val was omitted when an imposed membrane potential was not desired, or in some cases 5 μM of the protonophore carbonyl cyanide m-chlorophenylhydrazone (CCP) was present instead of Val.
The transport of polyvalent cations was monitored by difference absorbance measurements which detected formation of the Quin-2:cation complex within the vesicle lumen. An Aminco DW2a spectrophotometer operated in the dual wavelength mode was employed. In addition, an Oriel No. 59800 band pass filter was used between the cuvette and the beam scrambler-photomultiplier assembly to prevent detection of the fluorescent light emitted by Quin-2. The sample wavelength for all cations was 264 nm. The reference wavelengths were at an isosbestic point in the Quin-2/Quin-2:cation complex difference spectrum of interest. These wavelengths varied slightly from cation to cation, as previously described (Erdahl et al., 1996 Biochem. 35:13817). […]

[1] = 5.0 μM ETH 129, 30 μM CaCl2, Val, FIG. 3B

With `O=C(COCC(=O)N(C1CCCCC1)C1CCCCC1)N(C1CCCCC1)C1CCCCC1` [ETH 129] the “slope of log rate vs. log Ca2+ concentration” value (5.0 μM ETH 129, 0.5 μM Val, FIG. 7B) was 0.7, the “Ca2+ transport rate at zero potential (extrapolated)” value [1] was 0.41 nM/s and the “slope of log Ca2+ transport rate vs ΔΨ” value [1] was 0.12. For the same molecule, the “Ca2+ transport rate when CCP was used to eliminate an opposing potential” value (5.0 μM ETH 129, 100 μM CaCl2, 5.0 μM CCP, FIG. 2C) was 0.88 nM/s, the “Selectivity, Ca/Me” value (10^−2.0 M Cations, Me = Ca^2+) was “≡1.0” and the “Selectivity, Ca/Me” value (10^−2.0 M Cations, Me = Co^2+) was 53. For the same molecule, the “Selectivity, Ca/Me” value (10^−2.0 M Cations, Me = La^3+) was 5.1, the “Selectivity, Ca/Me” value (10^−2.0 M Cations, Me = Mn^2+) was 59 and the “Selectivity, Ca/Me” value (10^−2.0 M Cations, Me = Ni^2+) was 55. For the same molecule, the “Selectivity, Ca/Me” value (10^−2.0 M Cations, Me = Sr^2+) was 2.8, the “Selectivity, Ca/Me” value (10^−2.0 M Cations, Me = Zn^2+) was 2.3 and the “Selectivity, Ca/Me” value (10^−3 5 M Cations, Me = Ca^2+) was “≡1.0”. The “Selectivity, Ca/Me” value (10^−3 5 M Cations, Me = Co^2+) was 9.9, the “Selectivity, Ca/Me” value (10^−3 5 M Cations, Me = La^3+) was 0.44 and the “Selectivity, Ca/Me” value (10^−3 5 M Cations, Me = Mn^2+) was 8.9. For the same molecule, the “Selectivity, Ca/Me” value (10^−3 5 M Cations, Me = Ni^2+) was 8.6, the “Selectivity, Ca/Me” value (10^−3 5 M Cations, Me = Sr^2+) was 2.9 and the “Selectivity, Ca/Me” value (10^−3 5 M Cations, Me = Zn^2+) was 2.6. For the same molecule, the “Selectivity, Ca/Me” value (10^−5.0 M Cations, Me = Ca^2+) was “≡1.0”, the “Selectivity, Ca/Me” value (10^−5.0 M Cations, Me = Co^2+) was 1.6 and the “Selectivity, Ca/Me” value (10^−5.0 M Cations, Me = La^3+) was 0.14. For the same molecule, the “Selectivity, Ca/Me” value (10^−5.0 M Cations, Me = Mn^2+) was 1.1, the “Selectivity, Ca/Me” value (10^−5.0 M Cations, Me = Ni^2+) was 1.1 and the “Selectivity, Ca/Me” value (10^−5.0 M Cations, Me = Sr^2+) was 1.0. For the same molecule, the “Selectivity, Ca/Me” value (10^−5.0 M Cations, Me = Zn^2+) was 0.9, the “slope of log rate vs. log ionophore concentration” value (Ca2+ 30 μM, Val, FIG. 6B) was 2.8 and the “selectivity sequence among the divalent cations” value (FIG. 8) was “Ca^2+>Zn^2+≈Sr^2+>Co2+≈Ni^2+≈Mn^2+”. For the same molecule, the “acceleration of Ca2+ transport per 59 mV increase in ΔΨ” value (equivalent of the slope value, FIG. 3B) was 3.3 fold, the “SlopeETH 129” value (cation Ca^2+ 1.0 mM) was 1.5 and the “SlopeETH 129” value (cation Co^2+ 1.0 mM) was 0.55. The “SlopeETH 129” value (cation Mn^2+ 1.0 mM) was 0.85, the “SlopeETH 129” value (cation Ni^2+ 1.0 mM) was 0.78 and the “SlopeETH 129” value (cation Sr^2+ 1.0 mM) was 2.0. For the same molecule, the SlopeMe (cation Ca^2+) was 0.65, the SlopeMe (cation Co^2+) was 0.11 and the SlopeMe (cation La^3+) was “nonlin”. It also gave a SlopeMe (cation Mn^2+) of 0.04, a SlopeMe (cation Ni^2+) of 0.05 and a SlopeMe (cation Sr^2+) of 0.57. For the same molecule, the SlopeMe (cation Zn^2+) was 0.58 and the “effect of ETH 129 alone on rate of Ca2+ permeation” value (no Val or CCP, FIG. 2A) was “only a modest effect”.

Reference: patent US20020090619A1, “Methods for identifying mitochondrial divalent cation transporters” (priority 2000, published 2002)
